Data set [1] is described as follows: Induction of Keap1/Cul3- mediated EGFP tagged Tau (unknown origin) degradation in rat PC12 cells by Western blot analysis. It counts as cell-based. In general terms: In western blotting, separated proteins are transferred to a membrane and probed.
Data set [2] concerns the target Cullin-3/Microtubule-associated protein tau (Homo sapiens) (UniProt P10636+Q13618). As to the kind of experiment: Induction of Cul3- mediated EGFP tagged Tau (unknown origin) degradation in human SH-SY5Y cells harboring Keap1 siRNA at 10 uM by Western blot analysis. It counts as cell-based.
For data set [3], the target named is Microtubule-associated protein tau (Homo sapiens, UniProt P10636). As to the kind of experiment: Binding affinity to human Tau (1 to 441 residues) by ITC method. A general note: Isothermal titration calorimetry measures the heat released or taken up as one component is titrated into another.
Data set [4] is described as follows: Induction of Keap1/Cul3- mediated EGFP tagged Tau (unknown origin) degredation in mouse Neuro2a cells by Western blot analysis. The data set is classed as cell-based.
Data set [5] has as its target Kelch-like ECH-associated protein 1/Microtubule-associated protein tau (Homo sapiens) (UniProt P10636+Q14145). In words: Binding affinity to Keap1/Tau in human SH-SY5Y cells at 10 to 20 uM by Western blot analysis. It counts as cell-based.
Data set [6] in a line: Drug uptake in human SH-SY5Y cells using N-terminal TAMRA labeled compound at 10 uM after 12 hrs by Flow cytometry analysis. The data set is classed as ADME, cell-based. A general note: Flow cytometry measures light scatter and fluorescence of single cells or particles in a stream.
Data set [7] deals with T1, Kelch-like ECH-associated protein 1/Microtubule-associated protein tau/Cullin-3 (Homo sapiens) (UniProt P10636+Q14145+Q13618). As to the kind of experiment: Induction of Keap1/Cul3- mediated EGFP tagged Tau (unknown origin) degradation in human SH-SY5Y cells at 10 uM incubated for 10 hrs in presence of proteasome inhibitor MG132 by Western blot analysis. The data set is classed as cell-based.

The nature of data set [8]: Drug uptake in human SH-SY5Y cells using N-terminal TAMRA labeled compound at 10 uM after 8 hrs by DAPI staining-based laser scanning confocal microscopic analysis. The data set is classed as ADME, cell-based.
Data set [9] concerns the target T1, Kelch-like ECH-associated protein 1/Microtubule-associated protein tau/Cullin-3 (Homo sapiens). In words: Induction of Keap1/Cul3- mediated EGFP tagged Tau (unknown origin) degradation in human SH-SY5Y cells at 20 uM after 10 hrs by flow cytometry analysis. It counts as cell-based.
For data set [10] the target is unchanged. As to the kind of experiment: Induction of Keap1/Cul3- mediated EGFP tagged Tau (unknown origin) degradation in human SH-SY5Y cells at 10 uM incubated for 10 hrs in absence of proteasome inhibitor MG132 by Western blot analysis. It counts as cell-based.
The target of data set [11] is Kelch-like ECH-associated protein 1 (Homo sapiens, UniProt Q14145). In words: Binding affinity to human Keap1 (322 to 609 residues) by ITC method.

Activity calls are given as the source filed them. The calls are words filed in the database; no cut-off is given here.

T1 sequence (P10636 whole entry, looked up): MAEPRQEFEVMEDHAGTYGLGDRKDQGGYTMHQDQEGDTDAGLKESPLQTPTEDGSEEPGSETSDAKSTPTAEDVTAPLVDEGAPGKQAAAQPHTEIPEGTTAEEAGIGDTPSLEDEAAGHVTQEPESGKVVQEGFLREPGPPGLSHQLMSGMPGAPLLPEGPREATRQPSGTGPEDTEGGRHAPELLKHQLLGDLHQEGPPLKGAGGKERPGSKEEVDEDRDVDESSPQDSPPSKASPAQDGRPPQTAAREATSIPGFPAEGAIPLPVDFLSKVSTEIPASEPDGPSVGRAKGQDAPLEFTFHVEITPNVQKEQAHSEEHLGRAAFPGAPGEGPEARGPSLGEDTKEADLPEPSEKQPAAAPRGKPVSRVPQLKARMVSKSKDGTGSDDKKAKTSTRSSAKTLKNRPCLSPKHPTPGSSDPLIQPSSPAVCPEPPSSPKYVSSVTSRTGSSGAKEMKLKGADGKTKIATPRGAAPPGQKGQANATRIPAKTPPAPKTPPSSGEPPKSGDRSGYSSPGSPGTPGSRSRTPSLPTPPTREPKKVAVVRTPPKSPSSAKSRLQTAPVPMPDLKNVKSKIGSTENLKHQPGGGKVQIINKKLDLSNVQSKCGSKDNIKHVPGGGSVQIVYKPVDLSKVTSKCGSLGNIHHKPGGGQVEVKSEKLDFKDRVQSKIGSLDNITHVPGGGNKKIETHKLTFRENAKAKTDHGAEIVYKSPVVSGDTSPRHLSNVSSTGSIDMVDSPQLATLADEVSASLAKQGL
T1 sequence (Q13618 whole entry, looked up): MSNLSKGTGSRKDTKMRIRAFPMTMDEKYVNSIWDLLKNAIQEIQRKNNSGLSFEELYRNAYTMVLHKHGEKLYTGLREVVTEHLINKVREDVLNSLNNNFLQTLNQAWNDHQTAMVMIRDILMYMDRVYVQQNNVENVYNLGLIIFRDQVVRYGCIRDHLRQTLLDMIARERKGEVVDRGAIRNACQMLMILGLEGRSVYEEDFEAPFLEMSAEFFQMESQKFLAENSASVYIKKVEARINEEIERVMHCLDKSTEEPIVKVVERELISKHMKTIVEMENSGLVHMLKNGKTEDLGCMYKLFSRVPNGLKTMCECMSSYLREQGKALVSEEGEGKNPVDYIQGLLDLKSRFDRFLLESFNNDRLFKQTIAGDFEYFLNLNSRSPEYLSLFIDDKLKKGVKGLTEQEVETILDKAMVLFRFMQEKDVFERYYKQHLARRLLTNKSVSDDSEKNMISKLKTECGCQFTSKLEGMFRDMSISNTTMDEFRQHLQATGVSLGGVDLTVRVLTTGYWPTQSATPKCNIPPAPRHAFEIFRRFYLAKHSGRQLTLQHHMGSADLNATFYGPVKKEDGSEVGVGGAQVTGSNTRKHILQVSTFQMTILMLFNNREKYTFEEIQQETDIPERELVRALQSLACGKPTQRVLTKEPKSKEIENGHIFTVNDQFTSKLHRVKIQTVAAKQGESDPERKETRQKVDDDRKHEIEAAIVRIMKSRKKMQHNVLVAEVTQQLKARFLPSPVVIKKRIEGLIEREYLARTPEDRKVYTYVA
T1 sequence (Q14145 whole entry, looked up): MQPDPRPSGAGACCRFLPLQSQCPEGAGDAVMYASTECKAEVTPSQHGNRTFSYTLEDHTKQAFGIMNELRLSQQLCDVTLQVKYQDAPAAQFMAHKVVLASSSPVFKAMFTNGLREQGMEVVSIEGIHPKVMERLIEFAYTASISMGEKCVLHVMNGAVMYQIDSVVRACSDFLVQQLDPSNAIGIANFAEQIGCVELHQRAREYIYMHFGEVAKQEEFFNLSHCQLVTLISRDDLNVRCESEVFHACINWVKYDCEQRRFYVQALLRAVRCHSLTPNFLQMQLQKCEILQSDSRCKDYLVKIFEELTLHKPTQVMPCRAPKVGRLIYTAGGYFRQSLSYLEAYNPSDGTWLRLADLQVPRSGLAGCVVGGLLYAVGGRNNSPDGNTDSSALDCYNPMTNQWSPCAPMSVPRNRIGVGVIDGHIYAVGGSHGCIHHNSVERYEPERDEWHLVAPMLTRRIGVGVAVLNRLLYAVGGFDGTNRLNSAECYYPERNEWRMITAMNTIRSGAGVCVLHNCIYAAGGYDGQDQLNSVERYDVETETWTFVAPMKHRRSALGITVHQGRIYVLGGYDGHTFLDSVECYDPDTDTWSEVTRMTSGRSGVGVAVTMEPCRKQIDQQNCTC
Cullin-3/Microtubule-associated protein tau (Homo sapiens), sequence (P10636 whole entry, looked up, the tested form may be a part): as the sequence (P10636 whole entry, looked up) above
Cullin-3/Microtubule-associated protein tau (Homo sapiens), sequence (Q13618 whole entry, looked up, the tested form may be a part): as the sequence (Q13618 whole entry, looked up) above
Kelch-like ECH-associated protein 1, sequence (Q14145 whole entry, the tested form may be a part): as the sequence (Q14145 whole entry, looked up) above
Kelch-like ECH-associated protein 1/Microtubule-associated protein tau (Homo sapiens), sequence (P10636 whole entry, looked up): as the sequence (P10636 whole entry, looked up) above
Kelch-like ECH-associated protein 1/Microtubule-associated protein tau (Homo sapiens), sequence (Q14145 whole entry, looked up): as the sequence (Q14145 whole entry, looked up) above
Microtubule-associated protein tau, sequence (P10636 whole entry, the tested form may be a part): as the sequence (P10636 whole entry, looked up) above

As to `CC(=O)N[C@@H](Cc1ccc(O)cc1)C(=O)N[C@@H](CCC(N)=O)C(=O)N[C@@H](CCC(N)=O)C(=O)N[C@@H](Cc1ccc(O)cc1)C(=O)N[C@@H](CCC(N)=O)C(=O)N[C@@H](CC(=O)O)C(=O)N[C@@H](C)C(=O)N[C@H](C(=O)N[C@@H](C)C(=O)N[C@@H](CC(=O)O)C(=O)N[C@@H](CCC(=O)O)C(=O)N[C@@H](CCC(N)=O)C(=O)NCC(=O)NCC(=O)N[C@@H](CO)C(=O)NCC(=O)N[C@@H](CO)C(=O)N[C@@H](CC(C)C)C(=O)N[C@@H](CC(=O)O)C(=O)N1CCC[C@H]1C(=O)N[C@@H](CCC(=O)O)C(=O)N[C@H](C(=O)NCC(=O)N[C@@H](CCC(=O)O)C(=O)N[C@@H](Cc1ccc(O)cc1)C(=O)N[C@@H](CC(C)C)C(=O)N[C@H](CCCNC(=N)N)C(=O)N[C@H](CCCNC(=N)N)C(=O)N[C@H](CCCNC(=N)N)C(=O)N[C@H](CCCNC(=N)N)C(=O)N[C@H](CCCNC(=N)N)C(=O)N[C@H](CCCNC(=N)N)C(=O)N[C@H](CCCNC(=N)N)C(=O)N[C@H](CCCNC(=N)N)C(=O)O)[C@@H](C)O)[C@@H](C)O`, the Activity result in data set [1] and in data set [4] was “Dose-dependent effect” in each case. The result in data set [2] and in data set [7] was inactive. The Kd worked out at 763 nM in [3] and 22.8 nM in data set [11]. Also, the outcome in data set [5], in data set [9] and in data set [10] was Active. Besides, the Drug uptake entry in data set [6] and in [8] was “Active” in each case.
`CC(=O)N[C@@H](Cc1ccc(O)cc1)C(=O)N[C@@H](CCC(N)=O)C(=O)N[C@@H](CCC(N)=O)C(=O)N[C@@H](Cc1ccc(O)cc1)C(=O)N[C@@H](CCC(N)=O)C(=O)N[C@@H](CC(=O)O)C(=O)N[C@@H](C)C(=O)N[C@H](C(=O)N[C@@H](C)C(=O)N[C@@H](CC(=O)O)C(=O)N[C@@H](CCC(=O)O)C(=O)N[C@@H](CCC(N)=O)C(=O)NCC(=O)NCC(=O)NCC(=O)N[C@@H](CO)C(=O)NCC(=O)NCC(=O)N[C@@H](CC(C)C)C(=O)N[C@@H](CC(=O)O)C(=O)N1CCC[C@H]1C(=O)N[C@@H](CCC(=O)O)C(=O)N[C@H](C(=O)NCC(=O)N[C@@H](CCC(=O)O)C(=O)N[C@@H](Cc1ccc(O)cc1)C(=O)N[C@@H](CC(C)C)C(=O)N[C@H](CCCNC(=N)N)C(=O)N[C@H](CCCNC(=N)N)C(=O)N[C@H](CCCNC(=N)N)C(=O)N[C@H](CCCNC(=N)N)C(=O)N[C@H](CCCNC(=N)N)C(=O)N[C@H](CCCNC(=N)N)C(=O)N[C@H](CCCNC(=N)N)C(=O)N[C@H](CCCNC(=N)N)C(=O)O)[C@@H](C)O)[C@@H](C)O`: the result in [9] was inactive.
Regarding `CC(=O)N[C@@H](Cc1ccc(O)cc1)C(=O)N[C@@H](CCC(N)=O)C(=O)N[C@@H](CCC(N)=O)C(=O)N[C@@H](Cc1ccc(O)cc1)C(=O)N[C@@H](CCC(N)=O)C(=O)N[C@@H](CC(=O)O)C(=O)N[C@@H](C)C(=O)N[C@H](C(=O)N[C@@H](C)C(=O)N[C@@H](CC(=O)O)C(=O)N[C@@H](CCC(=O)O)C(=O)N[C@@H](CCC(N)=O)C(=O)NCC(=O)NCC(=O)N[C@@H](CO)C(=O)NCC(=O)N[C@@H](CO)C(=O)N[C@@H](CC(C)C)C(=O)N[C@@H](CC(=O)O)C(=O)N1CCC[C@H]1C(=O)N[C@@H](C)C(=O)N[C@H](C(=O)NCC(=O)N[C@@H](CCC(=O)O)C(=O)N[C@@H](Cc1ccc(O)cc1)C(=O)N[C@@H](CC(C)C)C(=O)N[C@H](CCCNC(=N)N)C(=O)N[C@H](CCCNC(=N)N)C(=O)N[C@H](CCCNC(=N)N)C(=O)N[C@H](CCCNC(=N)N)C(=O)N[C@H](CCCNC(=N)N)C(=O)N[C@H](CCCNC(=N)N)C(=O)N[C@H](CCCNC(=N)N)C(=O)N[C@H](CCCNC(=N)N)C(=O)O)[C@@H](C)O)[C@@H](C)O`, the outcome in data set [2], in [7], in [9] and in data set [10] was inactive.
Take `CC(=O)N[C@@H](Cc1ccc(O)cc1)C(=O)N[C@@H](CCC(N)=O)C(=O)N[C@@H](CCC(N)=O)C(=O)N[C@@H](Cc1ccc(O)cc1)C(=O)N[C@@H](CCC(N)=O)C(=O)N[C@@H](CC(=O)O)C(=O)N[C@@H](C)C(=O)N[C@H](C(=O)N[C@@H](C)C(=O)N[C@@H](CC(=O)O)C(=O)N[C@@H](CCC(=O)O)C(=O)N[C@@H](CCC(N)=O)C(=O)NCC(=O)NCC(=O)N[C@@H](CO)C(=O)NCC(=O)N[C@@H](CO)C(=O)N[C@@H](CC(C)C)C(=O)N[C@@H](CC(=O)O)C(=O)N1CCC[C@H]1C(=O)N[C@@H](CCC(=O)O)C(=O)N[C@H](C(=O)NCC(=O)N[C@@H](CCC(=O)O)C(=O)N[C@@H](Cc1ccccc1)C(=O)N[C@@H](CC(C)C)C(=O)N[C@H](CCCNC(=N)N)C(=O)N[C@H](CCCNC(=N)N)C(=O)N[C@H](CCCNC(=N)N)C(=O)N[C@H](CCCNC(=N)N)C(=O)N[C@H](CCCNC(=N)N)C(=O)N[C@H](CCCNC(=N)N)C(=O)N[C@H](CCCNC(=N)N)C(=O)N[C@H](CCCNC(=N)N)C(=O)O)[C@@H](C)O)[C@@H](C)O`: the outcome in data set [9] was Active.
For `CC(=O)N[C@@H](CCCCN)C(=O)N[C@@H](CC(=O)O)C(=O)N[C@@H](Cc1ccc(O)cc1)C(=O)N[C@@H](CCC(=O)O)C(=O)N[C@@H](CCC(=O)O)C(=O)N[C@H](C(=O)NCC(=O)N[C@H](C(=O)N[C@@H](CC(=O)O)C(=O)N[C@@H](CO)C(=O)N[C@H](C(=O)N[C@@H](CCC(=O)O)C(=O)NCC(=O)N[C@@H](CO)C(=O)NCC(=O)N[C@@H](CO)C(=O)N[C@@H](CC(C)C)C(=O)N[C@@H](CC(=O)O)C(=O)N1CCC[C@H]1C(=O)N[C@@H](CCC(=O)O)C(=O)N[C@H](C(=O)NCC(=O)N[C@@H](CCC(=O)O)C(=O)N[C@@H](Cc1ccc(O)cc1)C(=O)N[C@@H](CC(C)C)C(=O)N[C@H](CCCNC(=N)N)C(=O)N[C@H](CCCNC(=N)N)C(=O)N[C@H](CCCNC(=N)N)C(=O)N[C@H](CCCNC(=N)N)C(=O)N[C@H](CCCNC(=N)N)C(=O)N[C@H](CCCNC(=N)N)C(=O)N[C@H](CCCNC(=N)N)C(=O)N[C@H](CCCNC(=N)N)C(=O)O)[C@@H](C)O)C(C)C)C(C)C)C(C)C`, the result in [9] was Active.

One may read the Kd as the free concentration of one partner at which half of the binding sites on the other are occupied at equilibrium, for simple one-to-one binding. Higher therefore signals lower affinity.
